The conditions of data set [1]: human, microsomes.
A further data set can be described thus: in vivo. The conditions noted are these: mouse, brain, 0.5 mg/kg.
A short description of data set [2]: in vitro. Particulars: human, Caco-2.
Description: Apparent permeability in human Caco-2 cells
Data set [3] in a line: physchem. The conditions noted are these: buffer, pH 7.4.
Description: Thermodynamic solubility of compound at pH 7.4
Data set [4] can be described thus: Metabolic stability in mouse liver microsomes assessed as intrinsic clearance. It counts as ADME, Microsome. For orientation: Liver microsomes are vesicles of endoplasmic reticulum, rich in cytochrome P450 enzymes.
Data set [5] can be described thus: Dissociation constant, pKa of compound. The format is physicochemical.
Data set [6] is described as follows: physchem. The conditions noted are these: buffer, pH 7.4. This is another data set of the same source.
Description: Photostability of compound at pH 7.4 under ambient light assessed as compound remaining at 250 uM measured after 24 hrs by 2 LC-MS analysis
Data set [7] is described as follows: in vitro. The conditions noted are these: human, hepatocytes.
Description: Metabolic stability in human hepatocytes assessed as intrinsic clearance measured per million cells
A short description of data set [8]: in vitro. Particulars: mouse, hepatocytes.
Description: Metabolic stability in mouse hepatocytes assessed as intrinsic clearance measured per million cells

Values after ≈ are worked out from the molar mass of the structure shown. Where only a bound is given, the exact number is not on record here.

Description for in vivo: Ratio of unbound drug concentration in brain to plasma of mouse at 0.5 mg/kg

Turning to `CN1C[C@H]2C[C@@H]1CN2c1nc2cnc(-c3cnc4cccnn34)cc2n(Cc2ccccc2)c1=O`, the CLH in [1] amounted to 83 mL/min/g; in [4], 58 mL/min/g. The same compound gave a Kp uu in the data set “in vivo” of 0.5. Moreover, the Papp in “in vitro [2]” is 12.5 ×10⁻⁶ cm/s. Further, in the data set “physchem [3]”, the thermodynamic solubility amounted to 456 µM (≈ 212 µg/mL). This compound displayed a pKa in data set [5] of 8.4.
For `O=c1c(N2CC3CC(C2)N3)nc2cnc(-c3cnc4cccnn34)cc2n1Cc1ccccc1`, the figures for the CLH in data set [1] and in [4] were 22 mL/min/g and 10 mL/min/g, respectively. The same compound gave a Kp uu in the data set “in vivo” of 0.07. In the data set “in vitro [2]”, this compound gave a Papp of 13.2 ×10⁻⁶ cm/s. This compound registered a thermodynamic solubility in “physchem [3]” of 2 µM (≈ 0.901 µg/mL). For the same compound, the pKa in [5] came to 8.7.
On to `O=c1c(N2CCOCC2)nc2cnc(-c3cnc4cccnn34)cc2n1Cc1ccccc1`, for which the CLH in data set [1] worked out at 29 mL/min/g; in data set [4] it was 52 mL/min/g.
Turning to `O=c1c(C(F)F)nc2cnc(-c3cnc4cccnn34)cc2n1Cc1ccccc1`, the CLH in [1] came to 4 mL/min/g; in data set [4], 11 mL/min/g. This compound returned a Papp in the data set “in vitro [2]” of 13.9 ×10⁻⁶ cm/s.
Consider `O=c1c(N2CCC2)nc2cnc(-c3cnc4cccnn34)cc2n1Cc1ccccc1`, for which the CLH in [1] was found to be 63 mL/min/g; in data set [4] it was 226 mL/min/g.
Turning to `CN1CCN(c2nc3cnc(-c4cnc5cccnn45)cc3n(Cc3ccccc3)c2=O)CC1`, the results for the CLH in data set [1] and in data set [4] were 73 mL/min/g and 227 mL/min/g, respectively. Besides, the Papp in “in vitro [2]” came out at 23.6 ×10⁻⁶ cm/s. This compound also gave a solubility (thermodynamic) in the data set “physchem [3]” of under 1 µM. In addition, the pKa in [5] worked out at 7.6.
As for `CC1Oc2ccc(-c3cnc4ccccn34)nc2N(Cc2ccccc2)C1=O` (stereo not drawn), the fraction remaining at 24 h, 250 µM in “physchem [6]” was found to be 39%.
In the case of `C[C@H](c1ccccc1)n1c(=O)c(N2CC3CC(C2)N3)nc2cnc(-c3cnc4cccnn34)cc21`, the hepatocyte CLint in the data set “in vitro [7]” was 9 µL/min/1e6 cells; in “in vitro [8]”, 6 µL/min/1e6 cells. The compound also displayed a CLH in data set [1] of 21 mL/min/g. In “in vivo”, this compound showed a Kp uu of 0.026. The compound further showed a Papp in “in vitro [2]” of 8.3 ×10⁻⁶ cm/s. The compound further registered a solubility (thermodynamic) in “physchem [3]” of 356 µM (≈ 165 µg/mL).
On to `O=c1c(N2C[C@H]3C[C@@H]2CN3)nc2cnc(-c3cnc4cccnn34)cc2n1Cc1ccccc1`, for which the CLH was found to be 16 mL/min/g in data set [1] and 3 mL/min/g in data set [4]. In addition, the Papp in “in vitro [2]” turned out to be 8.6 ×10⁻⁶ cm/s. Also, the pKa in data set [5] was 8.8.
With `O=c1cnc2cnc(-c3cnc4cccnn34)cc2n1Cc1ccccc1`, the CLH in data set [1] was 34 mL/min/g. The compound further yielded a Papp in the data set “in vitro [2]” of 24.4 ×10⁻⁶ cm/s. Also, the share remaining at 24 h, 250 µM in the data set “physchem [6]” is over 97%.
In the case of `O=c1c(N2CCNCC2)nc2cnc(-c3cnc4cccnn34)cc2n1Cc1ccccc1`, the CLH in data set [1] is 42 mL/min/g; in data set [4], 32 mL/min/g. In “in vitro [2]”, this compound displayed a Papp of 10.7 ×10⁻⁶ cm/s. In “physchem [3]”, this compound had a thermodynamic solubility of under 1 µM. Besides, the pKa in data set [5] was 8.5.

By Papp is commonly meant a coefficient for how fast a substance crosses the barrier. By solubility (thermodynamic) is commonly meant solubility found after equilibrating the solid with the medium. For orientation: pKa means the negative logarithm of the acid dissociation constant. The term share remaining denotes the share of the starting amount still present when the sample was taken. One may read the hepatocyte CLint as the capacity of the preparation to metabolise the compound, expressed as a volume cleared per time. Read a high hepatocyte CLint as rapid turnover.
